The values below are quoted from earlier work in patent publication US6838238B1, “Morphatides: novel shape and structure libraries” (Invitrogen Corporation, priority 1996, dated 2005).

For the series the following is noted: ionizes by hydration to yield the tetrahedral phenylboronate anion.

Broadly, the pKa is the negative logarithm of the acid dissociation constant. As to `OB(O)c1ccccc1` [Phenylboronic acid], the pKa is 8.86.
